This note sets out measurements from patent publication US9060514B2, “Efficacy-enhancing agent composition for agricultural chemicals” (priority 2010, dated 2015).

The series in a line: Flash point of solvents. The series is classed as physicochemical. Conditions: measured with Cleveland open cup tester or value from 15509 chemical products. The source says: A flash point was a measured value (with a Cleveland open cup flashpoint tester or a value described in “15509 no Kagaku Seihin (15509 chemical products)” (2009, Jan., 27, Chemical Daily Co., Ltd.). Among solvents used in Comparative Examples, for those having a structure corresponding to the formula (C1), meanings of items in the formula (C1) were shown for convenience.
Take `COCC(C)O` (stereo not drawn) [Propylene glycol monomethyl ether]: the Flash point was 32 °C.
As for `CC(C)O` [Isopropanol], the figure is 12 °C; as for `CCCCOCCOCCOCCCC` [Diethyleneglycol dibutyl ether], 122 °C; as for `COCCOCCOC` [Diethylene glycol dimethyl ether], 56 °C.
Turning to `COCCO` [Methyl cellosolve], the Flash point amounted to 39 °C.
`OCCOCCO` [Diethylene glycol]: the Flash point came to 138 °C.
As for `OCCO` [Ethylene glycol], the figure is 120 °C; as for `CCOCCOCCO` [Ethyl carbitol], 102 °C; as for `COCCOCCO` [Methyl carbitol], 105 °C.
As for `CC(O)CO` (stereo not drawn) [Propylene glycol], the figure is 99 °C; as for `CCCCOCCOCCO` [n-Butyl carbitol], 120 °C.
`CCCCC(CC)COCCOCCO` (stereo not drawn) [Diethylene glycol mono2-ethylhexyl ether] gave a Flash point of 151 °C.
As for `CC(C)CO` [Isobutanol], the figure is 28 °C.
The value for `C[S+](C)[O-]` [Dimethylsulfoxide] was 95 °C; that for `CCCCC(CC)CO` (stereo not drawn) [2-ethyl-l-hexanol] was 78 °C.
